Read-outs that look alike come from different tables or passages of the source.
Tests used:
[1] = tested on: HIV-infected Jurkat cell clones (C16, 115 and N6); experiment: Jurkat HIV Latency assay (HIV-expressed luciferase); type: cell-based; conditions: Homo sapiens, averaged potency for HIV latency disruption in Jurkat HIV cells, 24 hours incubation, read-out: Jurkat Mean PXC50 (converted)
Method: For the Jurkat HIV Latency assay, compounds were dissolved and titrated in DMSO and diluted 100-fold in assay medium (RPMI-1640 containing 10% fetal bovine serum) containing an equal mixture of three HIV-infected Jurkat cell clones (C16, 115 and N6) at a total concentration of 1-2×10^5 cells/mL. To test stability, compounds are pre-incubated in assay medium for 48 hours at 37° C. prior to adding cells (48 hr EC50). Compounds that induce HIV expression result in a dose-dependent production of the HIV expressed luciferase enzyme. After the incubation of cells with compound for 24 hours at 37° C., HIV activation and cytotoxicity are determined by measuring luminescence after the addition of Promega Steady-Glo® Luciferase Assay reagent or CellTiter-Glo® Luminescent Cell Viability Assay reagent, respectively.

[2] = tested on: CD4+ T cells from HIV-infected donors; experiment: HIV latency disruption in primary patient CD4+ T cells (HIV gag RNA by RT-qPCR); type: cell-based; conditions: Homo sapiens
Method: For the assessment of compound activity in primary patient cells, PBMCs were obtained by continuous-flow leukapheresis from HIV-infected, antiretrovirally-treated, aviremic patients whose plasma HIV-1 RNA was less than 50 copies/mL at the time of collection. PBMCs were isolated by Ficoll-Hypaque density gradient centrifugation and cryopreserved in the vapor phase of liquid nitrogen. On the day of assay, cells were rapidly thawed to room temperature in a 37° C. water bath and total CD4+ T cells were isolated by negative selection (Stemcell Technologies). CD4+ T cells were reconstituted in assay medium (RPMI-1640 containing 10% fetal bovine serum, 10 ug/mL Fuzeon® and 200 nM Rilpivirin) and 5×10^6 were plated onto 2 mL 96-well polypropylene plates. Compounds were dissolved in DMSO, diluted 1:250 into assay medium and then titrated into assay medium supplemented with 0.4% DMSO with a minimum of 3 biological replicates per each treatment condition. Compound titrations were transferred to the cells and the assay plates were incubated at 37° C. for 24 hours. Following incubation, the assay plates were centrifuged at 400×g for 10 minutes and the cell-free supernatants were removed and discarded. The nucleic acid from the cell pellets were extracted, purified and segregated into RNA and DNA components using AllPrep DNA/RNA 96-well kits (Qiagen). HIV reactivation was quantified from the RNA fraction by one-step RT-qPCR (applied Biosystems) using primers and probe that target gag messenger RNA. HIV copies were calculated based on extrapolations from standard curves generated with known quantities of synthetic target HIV gag DNA in the same PCR reaction plate as the samples. A minimum of 3 technical RT-qPCR replicates were run for each biological replicate.
Data were normalized and modeled accordingly raw data were used to calculate the absolute number of HIV-gag RNA copies per million CD4+ T cells, with the value for each compound and concentration based on the averaged value of 3 to 5 biological replicates, with each biological replicate value being the average of 3 technical RT-qPCR replicates.
The dose-response curve was fit to an unconstrained four parameter logistic equation, defined as: y=Vmax{1−[x^n÷(K^n+x^n)]}+Y2 • Where: • x=compound concentration • y=normalized response data • Vmax=upper bound of response • K=EC50 • Y2=lower bound or baseline of response • n=hill coefficient
An example of dose-response HIV latency disruption in vitro is presented in FIG. 1 comparing the compound of invention (Example-1) to the compound of prior art (Compound-A) in peripheral blood CD4+ T cells from a HIV-infected fully-suppressed subject. […]

[3] = average potency from multiple donors, CD4+ T cells from HIV-infected donors, 24 hours, gag RNA, read-out: CD4 Mean PXC50 (converted)

| Compound | EC50 [1] | EC50 ([2]; FIG. 1, peripheral blood CD4+ T cells from a HIV-infected fully-suppressed subject, cell-associated HIV gag RNA, 4-parameter logistic regression, read-out: EC50) | EC50 [2, 3] |
| --- | --- | --- | --- |
| O=C1CCCN1Cc1nnc(Sc2ncnc3occ(-c4ccc(Cl)cc4)c23)o1 [Example 1, 1-((5-((5-(4-chlorophenyl)furo[2,3-d]pyrimidin-4-yl)thio)-1,3,4-oxadiazol-2-yl)methyl)pyrrolidin-2-one] | 0.632 µM | 0.047 µM | 0.0357 µM |
| O=C1CCCN1Cc1nnc(Sc2ncnc3occ(-c4ccco4)c23)o1 [Example 4, 1-((5-((5-(furan-2-yl)furo[2,3-d]pyrimidin-4-yl)thio)-1,3,4-oxadiazol-2-yl)methyl)pyrrolidin-2-one] | 0.491 µM |  | 0.015 µM |
| O=C1CCCN1Cc1nnc(Sc2ncnc3occ(-c4cccs4)c23)o1 [Example 6, 1-((5-((5-(thiophen-2-yl)furo[2,3-d]pyrimidin-4-yl)thio)-1,3,4-oxadiazol-2-yl)methyl)pyrrolidin-2-one] | 0.902 µM |  |  |
| Cc1ccc(-c2coc3ncnc(Sc4nnc(CN5CCCC5=O)o4)c23)s1 [Example 7, 1-((5-((5-(5-methylthiophen-2-yl)furo[2,3-d]pyrimidin-4-yl)thio)-1,3,4-oxadiazol-2-yl)methyl)pyrrolidin-2-one] | 0.625 µM |  | 0.39 µM |

Source: patent US11274102B2, “Compounds useful in HIV therapy” (GLAXOSMITHKLINE INTELLECTUAL PROPERTY DEVELOPMENT LIMITED, priority 2017, dated 2022)
